From patent US5177082A, “Huperzines and analogs” (priority 1990, dated 1993)
Read-outs that look alike come from different tables or passages of the source.

Experiments:
[1] = iv 375 μCi/kg, rat blood
[2] = Excretion of 3H-Huperzine A after a single dose; assay type: in vivo
[3] = in vivo; details: rat, iv; for k el / Vd / half-life: rat blood
[4] = Plasma protein binding by equilibrium dialysis; assay type: in vitro ADME; details: mouse, plasma of normal mice
Source text: Using equilibrium dialysis, it could be shown that the protein binding of ^3 H-Huperzine A in the plasma of normal mice was 17.2±4.1%.

[5] = Tissue distribution of 3H-Huperzine A radioactivity, iv; assay type: in vivo, rat
Protocol: After giving 250 μCi/kg by iv injections of ^3 H-Huperzine A to the rats, they were sacrificed at different times by bloodletting and the radioactivity contents of the organs were measured.

[6] = molecular target: true cholinesterase (Rattus norvegicus, UniProt P37136)
[7] = seven days after a single dose, 10080 min

true cholinesterase, sequence (P37136-2 with tags, fused parts or gaps limits assumed): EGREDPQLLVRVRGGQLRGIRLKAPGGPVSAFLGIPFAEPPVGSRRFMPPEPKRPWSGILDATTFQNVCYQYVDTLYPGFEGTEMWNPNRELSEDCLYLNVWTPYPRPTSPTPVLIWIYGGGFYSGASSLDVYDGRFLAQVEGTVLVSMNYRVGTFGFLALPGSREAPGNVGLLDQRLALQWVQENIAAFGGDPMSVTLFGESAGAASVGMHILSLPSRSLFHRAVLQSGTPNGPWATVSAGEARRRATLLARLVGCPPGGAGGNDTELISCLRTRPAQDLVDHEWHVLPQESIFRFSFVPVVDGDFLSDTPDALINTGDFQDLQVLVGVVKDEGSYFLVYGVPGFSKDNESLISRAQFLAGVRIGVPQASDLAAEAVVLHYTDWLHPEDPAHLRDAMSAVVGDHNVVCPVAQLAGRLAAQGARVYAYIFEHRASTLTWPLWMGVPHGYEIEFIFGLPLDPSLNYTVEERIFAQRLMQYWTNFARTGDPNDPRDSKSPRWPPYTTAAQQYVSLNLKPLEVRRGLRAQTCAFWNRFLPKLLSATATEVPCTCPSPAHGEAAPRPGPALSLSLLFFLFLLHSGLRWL

Structure (SMILES): C/C=C1\[C@H]2C=C(C)C[C@]1(N)c1ccc(=O)[nH]c1C2 [3H-Huperzine A]
- K12 [1]: 0.0778
- K21 [1]: 0.0366
- phase rate constant α [1]: 0.129 min⁻¹
- eliminated in the urine [2, 7]: 86.1%
- eliminated through feces [2, 7]: 5.5%
- excreted drug appearing within twenty-four hours (urine) ([2]; within twenty-four hours, 1440 min): 84.9%
- clearance [3]: 1.27 L/h/kg
- k el ([3]; K10, iv 375 μCi/kg): 0.00034 s⁻¹
- Vd ([3]; Vc, iv 375 μCi/kg): 1.04 L/kg
- Vd ([3]; Vd, iv 375 μCi/kg): 3.66 L/kg
- k el ([3]; phase rate constant β, iv 375 μCi/kg): 9.67e-05 s⁻¹
- half-life ([3]; t1/2α, iv 375 μCi/kg): 0.09 h
- half-life ([3]; t1/2β, iv 375 μCi/kg): 1.99 h
- time of peak radioactivity in blood (ig 375 μCi/kg, fasted 14 hours): 45 to 60 min
- radioactivity in the blood (seven hours after ig): still relatively high
- radioactivity in the blood (twenty minutes after ig): had risen noticeably
- fraction unbound [4]: 0.828
- radioactivity contents of the organs ([5]; 15 minutes after 250 μCi/kg iv): the kidney and liver had the highest contents, the lungs, spleen and heart had less and the fat and brain had the least
- radioactivity in every organ examined ([5]; after twenty-four hours): only a minute quantity of radioactivity
- brain distribution / blood-brain barrier ([5]; rat, in vivo): can pass the blood-brain barrier
- radioactivity contents of the organs ([5]; twelve hours after 250 μCi/kg iv): the radioactivity in each tissue was close to zero
- radioactivity contents of the organs ([5]; two hours after 250 μCi/kg iv): the radioactivity in the other tissues was markedly lower while that in the brain rose slightly

Structure (SMILES): C[N+](C)(C)CCO.[Cl-] [choline chloride]
- inhibition vs time response [6]: The same response was noted
